Results as given in patent US5120750A, “Generation of 1,4-dihydropyridine derivatives” (priority 1990, dated 1992).
“Also recorded” adds a separate entry of the source. Where two headings read alike, the source gives them in different places. Blank lines part the entries; values can stand above or below the compound they belong to.

Experiments:
angiotensin = assay: In-vitro angiotensin inhibitory activity; type: biochemical; settings: for Percent Inhibition (angiotensin inhibitory activity): in vitro; for angiotensin inhibitory activity (in words): general pharmacological screening
calcium channel = target: T1, calcium channel (Cavia porcellus, UniProt O35505); assay: Calcium channel antagonist activity: inhibition of muscarinic receptor-mediated Ca2+-dependent contraction (carbachol) of guinea pig ileal longitudinal smooth muscle; type: cell-based; settings: for relative potency as compared with Nifedipine: Nifedipine = reference
T1 construct: Longitudinal smooth muscle segments of 2 cm length were mounted under a resting tension; from tissue; host or cells: ileal longitudinal smooth muscle segments of male albino guinea pigs
Protocol: Male albino guinea pigs (body weight 300-450 g) were sacrificed by decapitation. The intestine was removed above the ileo-caecal junction. Longitudinal smooth muscle segments of 2 cm length were mounted under a resting tension of 300-400 mg. […] The muscles were equilibrated for 1 h with a solution change every 15 min. Two successive control contractions were elicited at 15 min. intervals with 5×10^-7 M carbachol. The isometric contractions were recorded with a force displacement transducer (FT 03C) on a GRASS* physiograph. The means of the […] contractile responses was taken as the 100% value for the tonic (slow) component of the response. The muscle was washed with Hepes saline solution and was allowed to re-equilibrate. The calcium antagonist (test compound) was added ten min before the dose-response for carbachol was determined. The drug-induced inhibition of contraction was expressed as percent of control. The ID50 values were graphically determined from the concentration-response curves, in triplicate.

[1] = In-vivo (P.O.) anti-ulcer stress activity; settings: for anti-ulcer stress Activity: P.O.; for anti-ulcer stressic activity (in words): general pharmacological screening
LTD4 = LTD4 antagonistic activity (general pharmacological screening)
[2] = In-vivo (P.O.) anti-inflammatory activity; settings: for anti-inflammatory Activity: P.O.
SHR Rat = assay: Blood pressure and heart rate in SHR Rat; type: in vivo; settings: 0.2 mg/Kg
heart muscle = assay: Ionotropic effect on heart muscle; settings: for heart contractile force: at concentrations which exhibit Ca-blocking effect in smooth muscles; for positive ionotropic effect on the heart: in the same concentration as on smooth muscle; for activation at 0.00325 µM: same concentration as smooth muscle relaxant (Compound 11: 3.25×10^-9 M), Compound 19 in the same condition, read-out: positive ionotropic effect on heart muscle
heart [3] = assay: Effect on heart rate
heart [4] = settings: J. Cardiovascular Pharmacology, 1987, 10 (Suppl. 1) S60-S65; cited from earlier work
[5] = guinea pig ileal longitudinal smooth muscle, carbachol, 37° C., triplicate, read-out: calcium channel antagonist act., inhib. act. on contractile response to CD ID50

T1 sequence (O35505 whole entry): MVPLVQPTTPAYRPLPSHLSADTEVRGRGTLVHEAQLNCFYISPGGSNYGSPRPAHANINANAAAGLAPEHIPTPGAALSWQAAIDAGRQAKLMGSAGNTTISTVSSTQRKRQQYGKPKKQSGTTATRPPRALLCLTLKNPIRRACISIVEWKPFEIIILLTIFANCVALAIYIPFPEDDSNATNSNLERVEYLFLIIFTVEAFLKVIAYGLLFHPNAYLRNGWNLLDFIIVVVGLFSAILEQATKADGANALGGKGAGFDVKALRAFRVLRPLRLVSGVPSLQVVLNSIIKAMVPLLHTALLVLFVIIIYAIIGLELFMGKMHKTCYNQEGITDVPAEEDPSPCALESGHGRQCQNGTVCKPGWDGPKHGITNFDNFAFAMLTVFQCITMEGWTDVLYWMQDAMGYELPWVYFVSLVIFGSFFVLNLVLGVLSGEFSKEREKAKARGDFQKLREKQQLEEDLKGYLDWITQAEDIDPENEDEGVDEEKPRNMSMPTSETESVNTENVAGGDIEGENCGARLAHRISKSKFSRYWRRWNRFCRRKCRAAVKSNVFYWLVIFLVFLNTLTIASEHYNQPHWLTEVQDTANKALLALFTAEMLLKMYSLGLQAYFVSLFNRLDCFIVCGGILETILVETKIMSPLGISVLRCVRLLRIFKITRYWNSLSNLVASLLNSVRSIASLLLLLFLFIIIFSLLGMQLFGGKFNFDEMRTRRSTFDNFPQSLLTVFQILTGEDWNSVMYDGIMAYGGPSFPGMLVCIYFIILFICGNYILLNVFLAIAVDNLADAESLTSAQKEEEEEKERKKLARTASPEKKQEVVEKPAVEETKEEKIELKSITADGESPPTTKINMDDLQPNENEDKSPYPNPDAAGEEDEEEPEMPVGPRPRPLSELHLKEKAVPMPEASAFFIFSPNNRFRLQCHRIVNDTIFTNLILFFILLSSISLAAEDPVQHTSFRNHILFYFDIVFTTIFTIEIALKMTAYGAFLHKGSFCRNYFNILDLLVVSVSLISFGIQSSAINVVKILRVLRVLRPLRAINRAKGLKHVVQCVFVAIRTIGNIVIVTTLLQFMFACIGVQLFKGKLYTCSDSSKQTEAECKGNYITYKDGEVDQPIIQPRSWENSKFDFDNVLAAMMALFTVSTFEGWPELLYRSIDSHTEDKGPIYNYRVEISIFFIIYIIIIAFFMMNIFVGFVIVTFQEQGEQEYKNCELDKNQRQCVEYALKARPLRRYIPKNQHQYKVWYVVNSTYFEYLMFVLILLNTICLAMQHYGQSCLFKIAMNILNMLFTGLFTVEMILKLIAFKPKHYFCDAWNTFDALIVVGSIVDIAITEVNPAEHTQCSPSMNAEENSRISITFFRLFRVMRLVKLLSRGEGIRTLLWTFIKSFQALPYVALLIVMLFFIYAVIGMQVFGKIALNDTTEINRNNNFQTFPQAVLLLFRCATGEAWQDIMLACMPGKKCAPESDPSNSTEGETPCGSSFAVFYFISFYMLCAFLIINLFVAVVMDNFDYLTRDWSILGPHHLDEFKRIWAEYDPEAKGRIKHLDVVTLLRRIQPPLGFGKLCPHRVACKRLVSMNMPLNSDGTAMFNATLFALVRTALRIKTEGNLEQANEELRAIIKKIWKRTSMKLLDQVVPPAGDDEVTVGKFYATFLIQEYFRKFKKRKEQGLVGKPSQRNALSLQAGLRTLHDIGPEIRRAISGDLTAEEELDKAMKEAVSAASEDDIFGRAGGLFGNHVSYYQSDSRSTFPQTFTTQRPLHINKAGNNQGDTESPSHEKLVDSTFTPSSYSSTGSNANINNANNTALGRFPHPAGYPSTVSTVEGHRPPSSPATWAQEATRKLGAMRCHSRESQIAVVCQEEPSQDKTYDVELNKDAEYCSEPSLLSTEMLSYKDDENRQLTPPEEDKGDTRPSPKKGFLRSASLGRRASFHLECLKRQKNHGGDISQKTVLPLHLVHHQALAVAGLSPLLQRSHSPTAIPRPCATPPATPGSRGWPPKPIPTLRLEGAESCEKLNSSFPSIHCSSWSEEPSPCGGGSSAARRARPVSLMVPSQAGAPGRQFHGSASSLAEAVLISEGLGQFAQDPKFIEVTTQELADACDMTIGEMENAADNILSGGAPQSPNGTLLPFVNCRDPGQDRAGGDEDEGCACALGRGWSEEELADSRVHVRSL

Compound: C[C@H](CS)C(=O)N1CCC[C@H]1C(=O)O [Captopril, reference compound]
Percent Inhibition (angiotensin inhibitory activity) (angiotensin; 0.05 μg/ml): 69%

Compound: COC(=O)C1=C(C)NC(C)=C(C(=O)OCCCCCCCc2nc(C)cs2)C1c1cccc(C(F)(F)F)c1 (centres unmarked) [Example 13, 3-[7-(4-Methylthiazol-2-yl)heptyloxycarbonyl]-5-methoxycarbonyl-2,6-dimethyl-4-(3-trifluoromethylphenyl)-1,4-dihydropyridine]
anti-inflammatory Activity ([2]; 25 mg/kg): 43%

Compound: CCOC(=O)C1=C(C)NC(C)=C(C(=O)OC)C1c1cccc(Cl)c1Cl (centres unmarked) [Felodipine, 3-ethoxycarbonyl-5-methoxycarbonyl-4-(2,3-dichlorophenyl)-2,6-dimethyl-1,4-dihydropyridine]
effect on heart rate (tachycardia) (heart [4]): creates tachycardia

Compound: C[C@]12CCC(=O)C=C1CC[C@@H]1[C@@H]2[C@@H](O)C[C@@]2(C)[C@H]1CC[C@]2(O)C(=O)CO [Hydrocortisone, reference compound]
anti-inflammatory Activity ([2]; 25 mg/kg): 32%

Compound: CCCCC1C(=O)N(c2ccccc2)N(c2ccccc2)C1=O [Phenylbutazone, reference compound]
anti-inflammatory Activity ([2]; 50 mg/kg): 33%

Compound: CN1CCN(CC(=O)N2c3ccccc3C(=O)Nc3cccnc32)CC1 [Pirenzepine, reference compound]
anti-ulcer stress Activity ([1]; 50 mg/kg): 75%

Second part, led by results:

IC50 (calcium channel; [5]): 3.84 nM
Compound: COC(=O)C1=C(C)NC(C)=C(C(=O)OCCCCCCCc2cc(C)no2)C1c1cccc([N+](=O)[O-])c1 (centres unmarked) [Example 1, 3-[7-(3-Methylisoxazol-5-yl)heptyloxycarbonyl]-5-methoxycarbonyl-2,6-dimethyl-4-(3-nitrophenyl)-1,4-dihydropyridine]
angiotensin inhibitory activity (in words) (angiotensin): very strong
Percent Inhibition (angiotensin inhibitory activity) (angiotensin; 0.0025 μg): 60%
Percent Inhibition (angiotensin inhibitory activity) (angiotensin; 0.01 μg/ml): 93%
anti-ulcer stress Activity ([1]; 50 mg/kg): 63%
anti-ulcer stressic activity (in words) [1]: very strong
LTD4 antagonistic activity (in words) (LTD4): very strong

IC50 (calcium channel; [5]): 5.13 nM
Compound: COC(=O)C1=C(C)NC(C)=C(C(=O)OCCCCCCCc2cc(C)no2)C1c1cccc(C(F)(F)F)c1 (centres unmarked) [Example 3, 3-[7-(3-Methylisoxazol-5-yl)heptyloxycarbonyl]-5-methoxycarbonyl-2,6-dimethyl-4-(3-trifluoromethylphenyl)-1,4-dihydropyridine]

IC50 (calcium channel; [5]): 6.24 nM
Compound: COC(=O)C1=C(C)NC(C)=C(C(=O)OCCCCCCn2nc(C)cc2C)C1c1cccc([N+](=O)[O-])c1 (centres unmarked) [Example 5, 3-[6-(3,5-Dimethylpyrazol-1-yl)hexyloxycarbonyl]-5-methoxycarbonyl-2,6-dimethyl-4-(3-nitrophenyl) -1,4-dihydropyridine]
anti-inflammatory Activity ([2]; 40 mg/kg): 35%
anti-inflammatory activity (in words) ([2]; general pharmacological screening): very strong
Percent Inhibition (angiotensin inhibitory activity) (angiotensin; 0.001 μg): 58%
Percent Inhibition (angiotensin inhibitory activity) (angiotensin; 0.01 μg/ml): 95%

relative potency as compared with Nifedipine (calcium channel; smooth muscle): 4.3
IC50 (calcium channel; smooth muscle, read-out: IC50 as calcium antagonist in smooth muscle): 3.25 ± 0.33 nM
Compound: COC(=O)C1=C(C)NC(C)=C(C(=O)OCCCCCCCc2nc(C)cs2)C1c1cccc([N+](=O)[O-])c1 (centres unmarked) [Example 11, 3-[7-(4-Methylthiazol-2-yl)heptyloxycarbonyl]-5-methoxycarbonyl-2,6-dimethyl-4-(3-nitrophenyl)-1,4-dihydropyridine]
heart rate change in SHR Rat (SHR Rat): without changing the heart rate
heart contractile force (heart muscle): increase the heart contractile force; also recorded: increases cardia contractile force
positive ionotropic effect on the heart (heart muscle): about 12%
activation at 0.00325 µM (heart muscle): ~12%
heart rate change (heart [3]): without changing the heart rate; also recorded: no effect on the heart

IC50 (calcium channel; [5]): 6.25 nM
Compound: COC(=O)C1=C(C)NC(C)=C(C(=O)OCCCCCCCc2nc(C)cs2)C1c1cccc(Cl)c1 (centres unmarked) [Example 15, 3-[7-(4-Methylthiazol-2-yl)heptyloxycarbonyl]-5-methoxycarbonyl-2,6-dimethyl-4-(3-chlorophenyl)-1,4-dihydropyridine]
angiotensin inhibitory activity (in words) (angiotensin): very strong
Percent Inhibition (angiotensin inhibitory activity) (angiotensin; 0.1 μg/ml): 64%
anti-ulcer stress Activity ([1]; 40 mg/kg): 63%
anti-ulcer stressic activity (in words) [1]: very strong
LTD4 antagonistic activity (in words) (LTD4): very strong

IC50 (calcium channel; [5]): 48.1 nM
Compound: COC(=O)C1=C(C)NC(C)=C(C(=O)OCCCCCCCc2nc(C)cs2)C1c1cccc(Cl)c1Cl (centres unmarked) [Example 17, 3-[7-(4-Methylthiazol-2-yl)heptyloxycarbonyl]-5-methoxycarbonyl-2,6-dimethyl-4-(2,3-dichlorophenyl)-1,4-dihydropyridine]

IC50 (calcium channel; [5]): 5.48 nM
Compound: COC(=O)C1=C(C)NC(C)=C(C(=O)OCCCCCCSc2nc(C)cs2)C1c1cccc([N+](=O)[O-])c1 (centres unmarked) [Example 18, 3-[6-(4-Methylthiazol-2-yl)thiohexyloxycarbonyl]-5-methoxycarbonyl-2,6-dimethyl-4-(3-nitrophenyl)-1,4-dihydropyridine]

IC50 (calcium channel; [5]): 5.81 nM
relative potency as compared with Nifedipine (calcium channel; smooth muscle): 2.5
Compound: COC(=O)C1=C(C)NC(C)=C(C(=O)OCCCCCCS(=O)(=O)c2nc(C)cs2)C1c1cccc([N+](=O)[O-])c1 (centres unmarked) [Example 19, 3-[6-(4-Methylthiazol-2-yl)sulfonylhexyloxycarbonyl]-5-methoxycarbonyl-2,6-dimethyl-4-(3-nitrophenyl)-1,4-dihydropyridine]
heart contractile force (heart muscle): increase the heart contractile force
positive ionotropic effect on the heart (heart muscle): about 22%
activation at 0.00325 µM (heart muscle): 25%
heart rate change (heart [3]): without changing the heart rate

IC50 (calcium channel; [5]): 15.4 nM
Compound: COC(=O)C1=C(C)NC(C)=C(C(=O)OCCCCCC[S+]([O-])c2nc(C)cs2)C1c1cccc([N+](=O)[O-])c1 (centres unmarked) [Example 20, 3-[6-(4-Methylthiazol-2-yl)sulfinylhexyloxycarbonyl]-5-methoxycarbonyl-2,6-dimethyl-4-(3-nitrophenyl)-1,4-dihydropyridine]
